Source: patent publication US4933347A, “Diamidines and bis(imidazolines) for the treatment of and prophylaxis against pneumocystis carinii pneumonia” (University of North Carolina at Chapel Hill, priority 1988, dated 1990)

Key:
[1] = system: Pneumocystis carinii; experiment: Treatment of Pneumocystis carinii pneumonia in Sprague-Dawley rats (extent of disease by histologic score); format: in vivo, male Sprague-Dawley rats; details: for Extent of Disease by Histologic Score: number of animals with score 0.5 / Extent of Disease by Histologic Score: number of animals with score 1 / Extent of Disease by Histologic Score: number of animals with score 2 / Extent of Disease by Histologic Score: number of animals with score 3 / Extent of Disease by Histologic Score: number of animals with score 4: 14 days; for Extent of Disease by Histologic Score: number of animals with score 0.5 / Extent of disease by histologic score (combined): number of animals in scoring group 0.5: 0.5 = <10 cysts found per 2 sections; for Extent of Disease by Histologic Score: number of animals with score 1 / Extent of disease by histologic score (combined): number of animals in scoring group 1: 1 = scattered cysts, <5% of lung involved; for Extent of Disease by Histologic Score: number of animals with score 2 / Extent of disease by histologic score (combined): number of animals in scoring group 2: 2 = scattered cysts; for Extent of Disease by Histologic Score: number of animals with score 2: 5-10% lung involved or small foci of infection; for Extent of Disease by Histologic Score: number of animals with score 3 / Extent of disease by histologic score (combined): number of animals in scoring group 3: 3 = scattered cysts; for Extent of Disease by Histologic Score: number of animals with score 3: 10-50% of lung involved with some intense areas of infection; for Extent of Disease by Histologic Score: number of animals with score 4: 4 = >50% of lung involved with many intense areas of focal infection; for Extent of disease by histologic score (combined): number of animals in scoring group 0.5 / Extent of disease by histologic score (combined): number of animals in scoring group 1 / Extent of disease by histologic score (combined): number of animals in scoring group 2 / Extent of disease by histologic score (combined): number of animals in scoring group 3 / Extent of disease by histologic score (combined): number of animals in scoring group 4: Table XII composite; for Extent of disease by histologic score (combined): number of animals in scoring group 2: 5-10% of lung involved; for Extent of disease by histologic score (combined): number of animals in scoring group 3: 10-50% of lung involved; for Extent of disease by histologic score (combined): number of animals in scoring group 4: 4 = >50% of lung involved
[2] = Toxicity of amidines in rats (standard laboratory procedure); format: in vivo
Experimental: Compounds having the structure represented by Formula I were synthesized in accordance with the appropriate procedures discussed previously. The reaction schemes shown in Charts I-III specifically identify the methodology used to synthesize the compounds of the respective examples. The compounds which were synthesized are shown in Table IA and the elemental analysis and melting points of the compounds are shown in Table IB. Most of the compounds were tested for toxicity in rats using standard laboratory procedure and the results of that toxicity testing are shown in Table XII. The compounds of Examples 31, 32, and 34 were not synthesized but may be synthesized in the general manner discussed previously.

[3] = dose as in value, else not given in Table XIII (10 mg/kg test dose)

Row | SMILES | Extent of Disease by Histologic Score: number of animals with score 0.5 ([1]; 5 mg/kg i.v. daily) [animals] | Extent of Disease by Histologic Score: number of animals with score 1 ([1]; 5 mg/kg i.v. daily) [animals] | Extent of Disease by Histologic Score: number of animals with score 2 ([1]; 5 mg/kg i.v. daily) [animals] | Extent of Disease by Histologic Score: number of animals with score 3 ([1]; 5 mg/kg i.v. daily) [animals] | Extent of Disease by Histologic Score: number of animals with score 4 ([1]; 5 mg/kg i.v. daily) [animals] | Extent of disease by histologic score (combined): number of animals in scoring group 0.5 ([1]; tested at 5 mg/kg) [animals] | Extent of disease by histologic score (combined): number of animals in scoring group 1 ([1]; tested at 5 mg/kg) [animals] | Extent of disease by histologic score (combined): number of animals in scoring group 2 ([1]; tested at 5 mg/kg) [animals] | Toxicity of amidines: Effect [2, 3] | Extent of Disease by Histologic Score: number of animals with score 0.5 ([1]; 2.5 mg/kg i.v. daily) [animals] | Extent of Disease by Histologic Score: number of animals with score 1 ([1]; 2.5 mg/kg i.v. daily) [animals] | Extent of Disease by Histologic Score: number of animals with score 2 ([1]; 2.5 mg/kg i.v. daily) [animals] | Extent of Disease by Histologic Score: number of animals with score 3 ([1]; 2.5 mg/kg i.v. daily) [animals] | Extent of Disease by Histologic Score: number of animals with score 4 ([1]; 2.5 mg/kg i.v. daily) [animals] | Extent of disease by histologic score (combined): number of animals in scoring group 0.5 ([1]; tested at 2.5 mg/kg) [animals] | Extent of disease by histologic score (combined): number of animals in scoring group 1 ([1]; tested at 2.5 mg/kg) [animals] | Extent of disease by histologic score (combined): number of animals in scoring group 2 ([1]; tested at 2.5 mg/kg) [animals] | Extent of disease by histologic score (combined): number of animals in scoring group 3 ([1]; tested at 2.5 mg/kg) [animals] | Extent of disease by histologic score (combined): number of animals in scoring group 4 ([1]; tested at 2.5 mg/kg) [animals] | Toxicity of amidines: Effect ([2]; rat, in vivo, 2.5 mg/kg) | other results
1 | N=C(N)c1ccc(NCCCCCNc2ccc(C(=N)N)cc2)cc1 [Example 17] |  |  |  |  |  |  |  |  |  |  |  |  |  |  |  |  |  |  |  |  | Extent of Disease by Histologic Score: number of animals with score 0.5 ([1]; 10 mg/kg i.v. daily): 1 animals; Extent of Disease by Histologic Score: number of animals with score 1 ([1]; 10 mg/kg i.v. daily): 2 animals; Extent of Disease by Histologic Score: number of animals with score 2 ([1]; 10 mg/kg i.v. daily): 3 animals; Extent of Disease by Histologic Score: number of animals with score 3 ([1]; 10 mg/kg i.v. daily): 1 animals; Extent of Disease by Histologic Score: number of animals with score 4 ([1]; 10 mg/kg i.v. daily): 0 animals; Efficacy in treating PCP compared with pentamidine ([1]; 10 mg/kg unless otherwise noted): better than or equal to pentamidine; Extent of disease by histologic score (combined): number of animals in scoring group 0.5 ([1]; 10 mg/kg): 1 animals; Extent of disease by histologic score (combined): number of animals in scoring group 1 ([1]; 10 mg/kg): 2 animals; Extent of disease by histologic score (combined): number of animals in scoring group 2 ([1]; 10 mg/kg): 3 animals; Extent of disease by histologic score (combined): number of animals in scoring group 3 ([1]; 10 mg/kg): 1 animals; Extent of disease by histologic score (combined): number of animals in scoring group 4 ([1]; 10 mg/kg): 0 animals; Efficacy in treating PCP compared with related compounds of the series ([1]; effect of chain length or substituent): least effective; Deaths by day 13 ([2]; rat, in vivo): 2 deaths
2 | N=C(N)c1ccc(NCCCCCNc2ccc(C(=N)N)cc2[N+](=O)[O-])c([N+](=O)[O-])c1 [Example 18] | 1 | 3 | 0 | 2 | 1 | 1 | 3 | 0 | Acute toxicity - death at 10 mg/kg |  |  |  |  |  |  |  |  |  |  |  | Extent of disease by histologic score (combined): number of animals in scoring group 3 ([1]; tested at 5 mg/kg): 2 animals; Extent of disease by histologic score (combined): number of animals in scoring group 4 ([1]; tested at 5 mg/kg): 1 animals; Efficacy in treating PCP compared with control ([1]; compound at 5 mg/kg): better than the control; Efficacy in treating PCP compared with pentamidine ([1]; compound at 5 mg/kg): less effective than pentamidine
3 | N=C(N)c1ccc(OCCCCCCOc2ccc(C(=N)N)cc2N)c(N)c1 [Example 22] | 0 | 1 | 4 | 3 | 0 | 0 | 1 | 4 | Acute toxicity - death at 10 mg/kg |  |  |  |  |  |  |  |  |  |  |  | Extent of disease by histologic score (combined): number of animals in scoring group 3 ([1]; tested at 5 mg/kg): 3 animals; Extent of disease by histologic score (combined): number of animals in scoring group 4 ([1]; tested at 5 mg/kg): 0 animals; Efficacy in treating PCP compared with pentamidine ([1]; compound at 5 mg/kg): significantly less effective than the other compounds or pentamidine; Toxicity (words in running text) ([2]; rat, in vivo): toxic
4 | N=C(N)c1ccc(OCCCCOc2ccc(C(=N)N)cc2Cl)c(Cl)c1 [Example 24] |  |  |  |  |  |  |  |  |  | 0 | 1 | 2 | 3 | 2 | 0 | 1 | 2 | 3 | 2 | None | 
5 | N=C(N)c1ccc(OCCCCCOc2ccc(C(=N)N)cc2Cl)c(Cl)c1 [Example 25] |  |  |  |  |  |  |  |  |  | 0 | 0 | 0 | 4 | 4 | 0 | 0 | 0 | 4 | 4 | None | 
6 | N=C(N)c1ccc(NCCCNc2ccc(C(=N)N)cc2[N+](=O)[O-])c([N+](=O)[O-])c1 [Example 35] | 0 | 0 | 0 | 2 | 6 | 0 | 0 | 0 |  |  |  |  |  |  |  |  |  |  |  |  | Extent of disease by histologic score (combined): number of animals in scoring group 3 ([1]; tested at 5 mg/kg): 2 animals; Extent of disease by histologic score (combined): number of animals in scoring group 4 ([1]; tested at 5 mg/kg): 6 animals; Toxicity of amidines: Effect ([2]; tested at 5 mg/kg): no toxicity
7 | N=C(N)c1ccc(OCCCCOc2ccc(C(=N)N)cc2[N+](=O)[O-])c([N+](=O)[O-])c1 [Example 38] |  |  |  |  |  |  |  |  | Acute toxicity at 10 mg/kg and 5 mg/kg | 0 | 0 | 3 | 1 | 4 | 0 | 0 | 3 | 1 | 4 |  | Toxicity of amidines: Effect ([2]; tested at 2.5 mg/kg): no toxicity
8 | CN1CCN=C1c1ccc(OCCCCOc2ccc(C3=NCCN3C)cc2)cc1 [Example 41] |  |  |  |  |  |  |  |  |  | 0 | 0 | 2 | 4 | 2 | 0 | 0 | 2 | 4 | 2 | no toxicity | 
9 | CN1CCN=C1c1ccc(OCCCCCOc2ccc(C3=NCCN3C)cc2)cc1 [Example 42] |  |  |  |  |  |  |  |  | Acute toxicity at 10 mg/kg and 5 mg/kg | 0 | 0 | 2 | 3 | 3 | 0 | 0 | 2 | 3 | 3 | no toxicity | 
